# Assay results reported in paper PMC12196007 (Molecules, 2025).
# Where “and” joins values, the source holds several entries; their conditions need not be identical. Identical values can stand only once. Like-named read-outs stand apart in the source and are kept apart here.
# What was measured:
# Caco-2 cells = assay: Cellular uptake in Caco-2 cell monolayer; assay type: in vitro ADME, human; settings: Caco-2, 200 μg·mL−1 CUR, 20 min
# Procedure: Caco-2 cells were seeded into the donor chamber of Transwell inserts at a density of 1 × 10^5 cell·mL^−1 and cultured in complete medium. Transepithelial electrical resistance (TEER) was measured on the 0th, 3rd, 5th, 7th, 10th, and 15th days to monitor monolayer integrity. A TEER value exceeding 700 Ω·cm² was established as the threshold for successful formation of the human intestinal epithelial barrier model. Following model validation, the cell surface was equilibrated with PBS for 30 min and rinsed to remove debris. […] Cellular uptake was terminated by rapid washing with ice-cold PBS to remove surface-bound drug and nonviable cells. […] Cellular uptake was calculated according to Equation (4).
# The established Caco-2 cell monolayer model imitating human intestinal epithelium was equilibrated in pH 7.4 PBS at 37 °C within a CO2 incubator for 30 min. After removal of PBS, the cell surface was rinsed three times. […] The uptake process was terminated by ice-cold PBS, and residual solutions were removed by washing. Cells were then scraped into centrifuge tubes, sonicated, and quantified for uptake measurements.
# [1] = In vitro drug release (dialysis bag, PBS); assay type: physicochemical
# Procedure: The release media were designed to simulate physiological conditions of the human gastrointestinal tract: pH 2.0 (simulated gastric fluid), pH 6.8 (simulated intestinal fluid), and pH 7.4 (to mimic the alkaline colonic terminus). […] Aliquots (0.5 mL) were collected at predetermined intervals (0.5, 1, 2, 4, 6, 8, 12, and 24 h), with the release medium replenished immediately after each sampling to maintain sink conditions. The experiment was repeated three times. The drug release was quantified using a validated HPLC method. Cumulative release percentages were plotted against time, and release kinetics were analyzed using four models: zero-order kinetics, first-order kinetics, Higuchi equation, and Weibull distribution function. Key parameters, including T50 (time required for 50% drug dissolution) and Td (time required for 63.2% drug dissolution), were calculated to evaluate pH-dependent release profiles.
# [2] = In vivo pharmacokinetic study, oral gavage; design: species or system SD rats
# Procedure: The analysis was performed on a Q Exactive™ hybrid quadrupole-Orbitrap™ mass spectrometer (Thermo Fisher Scientific, USA) with the following parameters: Chromatographic separation was achieved by Agilent ZORBAX SB-C18 column (150 mm × 4.6 mm, 5 μm) with a mobile phase of acetonitrile and 0.1% formic acid aqueous solution (48:52, v/v) at a flow rate of 1 mL·min^−1 while maintaining the column temperature at 30 °C. The mass spectrometer operated in positive ion mode with an electrospray ionization (ESI) source, employing multiple reaction monitoring (MRM) for detection. Key ionization parameters included a capillary voltage of 3.0 kV and nitrogen as the collision gas.
# Twelve SD rats (220 ± 20 g, equal numbers of males and females) were fasted for 24 h with free access to water and randomly allocated into two groups (n = 6 per group). […] Blood samples (~0.5 mL) were collected from the jugular vein into anticoagulant tubes at 0, 0.25, 0.5, 1, 2, 4, 6, 8, 12, and 24 h after administration. After centrifugation to collect the supernatant, samples were spiked with 20 μL of a 100 μg·mL^−1 internal standard solution, extracted twice with ethyl acetate for protein precipitation, and the combined organic phases were evaporated using a refrigerated vacuum concentrator.
# [3] = cited from earlier work
# [4] = Stability of CUR sample solutions at room temperature (HPLC method validation); assay type: physicochemical; settings: 0-20 h
# Procedure: 2.4 Precision and Stability […]
# was diluted to three concentration levels: low (1 μg·mL-1), medium (10 μg·mL-1), and […]
# content was measured by HPLC in triplicate to assess intraday precision. The same samples were analyzed once daily for five consecutive days to assess interday […]
# temperature. Samples were collected at 0, 4, 8, 12, and 20 hours and analyzed by […]
# for low, medium, and high concentrations, respectively. The interday RSD values were 1.97%, 2.00%, and 1.94%, indicating good method precision. Stability results […]
# temperature for up to 20 hours. […]
# [5] = 2 h incubation of CUR solutions with intestinal segments (residual CUR); assay type: in vitro ADME, rats
# [6] = In situ single-pass intestinal perfusion; assay type: in vivo, Sprague–Dawley (SD) rats; settings: for Papp: both sexes, Sprague-Dawley, rat, other: in situ single-pass intestinal perfusion, read-out: Peff (effective permeability coefficient)
# Procedure: The rats were anesthetized and secured in a supine position on a surgical platform maintained at 37 °C. […] A 10 cm intestinal segment was isolated, and incisions were made at both ends. Silicone tubes were inserted into the incisions and ligated. […] Subsequently, the test sample was perfused through the intestinal loop. […] The collected samples were centrifuged, and the supernatant was mixed with methanol to precipitate proteins. After a second centrifugation, the resulting supernatant was analyzed by HPLC.
# [7] = both sexes, Sprague-Dawley, rat, plasma, po, 50 mg/kg
structure (smiles),measurement,setting,value
"COc1cc(/C=C/C(=O)CC(=O)/C=C/c2ccc(O)c(OC)c2)ccc1O [CUR, Curcumin]","Drug Intake, mean (x¯)",Caco-2 cells; n = 3,43.82 ± 1.74 µg/mg
same,Drug Intake (single replicates),Caco-2 cells; per mg protein,42.03 µg/mg and 44.28 µg/mg and 45.46 µg/mg
same,Cumulative release of CUR at 4 h,[1]; 4 h,~80%
same,Cumulative release rate at 24 h,"[1]; pH 2.0, 24 h",88.89%
same,Cumulative release rate at 24 h,"[1]; pH 6.8, 24 h",90.17%
same,Cumulative release rate at 24 h,"[1]; pH 7.4, 24 h",86.64%
same,AUC(0-inf),[2]; [7],144 ± 25.4 ng·h/mL
same,AUC(0-t),[2]; [7],106 ± 21.8 ng·h/mL
same,Cmax,[2]; [7],64.9 ± 12 ng/mL
same,Tmax,[2]; [7],1 h
same,half-life,[2]; [7],238 ± 88.8 min
same,MRT last,"[2]; both sexes, Sprague-Dawley, rat, plasma, po, 50 mg/kg, read-out: MRT0-t",2.35 ± 0.67 h
same,MRT inf,"[2]; both sexes, Sprague-Dawley, rat, plasma, po, 50 mg/kg, read-out: MRT0-∞",5.13 ± 1.36 h
same,Time within which almost completely eliminated,"[2]; rats, oral, 50 mg·kg−1",≤ 4 h
same,Plasma concentrations as share of the administered dose (oral bioavailability),[3],~1%
same,Stability: RSD of CUR concentration,"[4]; CUR solution for intestinal mucus penetration study, 10 μg·mL-1, room temperature",0.28%
same,Stability: RSD of CUR concentration,"[4]; CUR solution for release studies, 50 μg·mL-1, room temperature",0.63%
same,Residual CUR percentage,[5]; colonic segment,92.90 ± 0.96%
same,Residual CUR percentage,[5]; duodenal segment,99.63 ± 0.34%
same,Residual CUR percentage,[5]; ileal segment,94.41 ± 1.57%
same,Residual CUR percentage,[5]; jejunal segment,95.63 ± 0.47%
same,Papp,[6]; colon,8.3 ± 0.1 ×10⁻⁶ cm/s
same,Papp,[6]; duodenum,27.2 ± 0.5 ×10⁻⁶ cm/s
same,Papp,[6]; ileum,23.3 ± 1.1 ×10⁻⁶ cm/s
same,Papp,[6]; jejunum,26.1 ± 3.7 ×10⁻⁶ cm/s
same,Ka (absorption rate constant),[6]; colon,0.29 ± 0.0095 min⁻¹
same,Remaining dosage,"[6]; colon, 15 min",97.47 ± 0.83%
same,Remaining dosage,"[6]; colon, 30 min",92.6 ± 1.04%
same,Remaining dosage,"[6]; colon, 45 min",87.97 ± 1.07%
same,Remaining dosage,"[6]; colon, 60 min",79.51 ± 3.48%
same,Remaining dosage,"[6]; colon, 75 min",78.03 ± 0.99%
same,Remaining dosage,"[6]; colon, 90 min",73.23 ± 0.45%
same,Remaining dosage,"[6]; colon, 105 min",70.98 ± 0.98%
same,Remaining dosage,"[6]; colon, 120 min",66.55 ± 1.07%
same,Ka (absorption rate constant),[6]; duodenum,0.52 ± 0.0048 min⁻¹
same,Remaining dosage,"[6]; duodenum, 15 min",93.61 ± 0.59%
same,Remaining dosage,"[6]; duodenum, 30 min",89.22 ± 1.18%
same,Remaining dosage,"[6]; duodenum, 45 min",79.11 ± 0.58%
same,Remaining dosage,"[6]; duodenum, 60 min",69.18 ± 1.92%
same,Remaining dosage,"[6]; duodenum, 75 min",61.93 ± 1.54%
same,Remaining dosage,"[6]; duodenum, 90 min",54.95 ± 0.33%
same,Remaining dosage,"[6]; duodenum, 105 min",45.36 ± 1.72%
same,Remaining dosage,"[6]; duodenum, 120 min",42.13 ± 0.88%
same,Ka (absorption rate constant),[6]; ileum,0.47 ± 0.0208 min⁻¹
same,Remaining dosage,"[6]; ileum, 15 min",93.68 ± 0.37%
same,Remaining dosage,"[6]; ileum, 30 min",89.84 ± 0.89%
same,Remaining dosage,"[6]; ileum, 45 min",82.04 ± 1.06%
same,Remaining dosage,"[6]; ileum, 60 min",72.17 ± 1.08%
same,Remaining dosage,"[6]; ileum, 75 min",64.11 ± 1.25%
same,Remaining dosage,"[6]; ileum, 105 min",51.48 ± 1.18%
same,Remaining dosage,"[6]; ileum, 120 min",45.11 ± 3.27%
same,Ka (absorption rate constant),[6]; jejunum,0.47 ± 0.0088 min⁻¹
same,Remaining dosage,"[6]; jejunum, 15 min",94.43 ± 2.05%
same,Remaining dosage,"[6]; jejunum, 30 min",90.52 ± 0.80%
same,Remaining dosage,"[6]; jejunum, 45 min",87.97 ± 0.43%
same,Remaining dosage,"[6]; jejunum, 60 min",77.07 ± 0.97%
same,Remaining dosage,"[6]; jejunum, 75 min",70.44 ± 0.82%
same,Remaining dosage,"[6]; jejunum, 90 min",62.99 ± 0.92%
same,Remaining dosage,"[6]; jejunum, 105 min",54.99 ± 0.74%
same,Remaining dosage,"[6]; jejunum, 120 min",46.26 ± 0.94%
